{"source": "patent US9701690B2", "about": "“Myrtocomuloacetalone 1 as an anti-inflammatory agent” (priority 2014, dated 2017)", "key": {"superoxide (O−2)": {"test_system": "superoxide (O−2)", "test": "Oxidative burst, superoxide production", "format": "cell-based", "details": "for Oxidative burst % Inhibition O−2: 25 μg/Ml"}, "ROS (HOCl)": {"test_system": "ROS (HOCl)", "test": "Oxidative burst, ROS (HOCl) production (zymosan induced)", "format": "cell-based"}, "T-cells": {"test_system": "T-cells", "test": "T-cell proliferation", "format": "cell-based", "text": "T Lymphocytes, the major key detector cells of the adaptive immune responses, differ entirely from those of innate immunity that includes free a radical generation system. However, the effector pathways overlap to a great extent. Therefore, they can play a leading role in the development of autoimmune disease related to oxidative stress."}, "MDBK kidney cells": {"test_system": "MDBK kidney cells", "test": "MTT assay, MDBK kidney cell proliferation", "format": "cell-based", "details": "48 hours", "description": "FIG. 5 depicts the effect of myrtocomuloacetalone 1 on MDBK kidney cell proliferation by MTT assay. MDBK Kidney cell line was incubated in the presence of three concentrations 25, 5 and 0.5 μg/mL of test compounds or without addition of compounds (− test control) and in presence of cytotoxic drug cyclohexamide (+ control).\n(§1) The effect of myrtocomuloacetalone 1 on cell viability was determined in MDBK, CC1, J774 and 3T3 Fibrobast cells and the IC50 for each line was calculated."}, "CC1 liver cells": {"test_system": "CC1 liver cells", "test": "MTT assay, CC1 liver cell proliferation", "format": "cell-based, Wistar rat", "details": "48 hours", "description": "FIG. 6 depicts the effect of myrtocomuloacetalone 1 on Wistar rat CC1 liver cell proliferation by MTT assay. CC1 liver cellline was incubated in the presence of three concentrations 25, 5 and 0.5 μg/mL of test compounds or without addition of compounds (−ve control) and in the presence of cytotoxic drug cyclohexamide (+ control).\nas §1"}, "[1]": {"test_system": "3T3 mouse fibroblast cells", "test": "MTT assay, 3T3 fibroblast cell proliferation", "format": "cell-based", "details": "48 hours", "description": "FIG. 7 depicts the effect of myrtocomuloacetalone 1 on 3T3 mouse fibrobast cell proliferation by MTT assay. Fibrobast cell line was incubated in the presence of three concentrations (25, 5 and 0.5 μg/mL) of test compounds or without addition of compounds (−ye control) and in presence of cytotoxic drug cyclohexamide (+ control).\nas §1"}, "[2]": {"test_system": "Nitric Oxide release by J774.2 macrophages", "test": "LPS-induced inflammatory Nitric Oxide release by macrophages (griess reagent)", "format": "cell-based, mouse", "details": "J774.2, LPS, 48 hours", "description": "FIG. 2 depicts the effect of myrtocomuloacetalone 1 on inflammatory Nitric Oxide release by macrophages in response to LPS, macrophages. J774.2 cells were incubated in the presence or absence of compound for 48 hours and supernatant was detected for the presence of nitrite by griess reagent. The result was compared with known inhibitor of Nitric Oxide; LNMA (NG Monomethyl L arginine).\nDuring inflammation, the inducible form of nitric oxide synthase gets activated and causes the robust generation of Nitric Oxide that causes excessive vasodilation which results in hypotension and septic shock. In contrast, Nitric Oxide combined with superoxide (ROS generated during phagocytosis) leads to ONOO generation and eventually reduces the bioavailability of basal Nitric Oxide and therefore normal function of neurotransition will be halted. This effect mainly leads to vasoconstriction, hypertension and atherosclerosis. Current studies reveal that the compound is an inhibitor to the inflammatory Nitric Oxide released by the activated macrophages in cell culture supernatant. It is found to be a highly significant inhibitor Nitric Oxide with an IC50 value of <1 μg/mL (see FIG. 2)."}, "p38": {"test_system": "p38", "test": "LPS activated transcription factor p38", "format": "cell-based"}, "[3]": {"test_system": "basal Nitric Oxide, U138MG cells", "test": "Basal level of Nitric Oxide in neuronal cells (griess reagent)", "format": "cell-based", "details": "48 hours", "description": "FIG. 1 depicts the effect of myrtocomuloacetalone 1 on basal level of Nitric Oxide neuronal cells. U138MG cells were incubated in presence and absence of compound for 48 hours and supernatant was analyzed for the level of the presence of nitrite by griess reagent.\nUnder normal physiological conditions, Nitric Oxide is necessary for normal vascular function because of its effect as a neurotransmitter. This kind of Nitric Oxide is called a basal level of Nitric Oxide, which is released by neuronal and endothelial synthases (Hattori, Kasai, and Gross 2004). The test compound […] in the basal level of Nitric Oxide released by the neuronal cell (FIG. 1)."}, "H2O2": {"test_system": "H2O2", "test": "Oxidative burst, hydrogen peroxide production", "format": "cell-based"}, "J774.2 macrophages": {"test_system": "J774.2 macrophages", "test": "MTT assay, J774.2 macrophage cell proliferation", "format": "cell-based, mouse", "details": "48 hours", "description": "FIG. 8 depicts the effect of myrtocomuloacetalone 1 on J774.2 mouse macrophage cell proliferation by MIT assay. Macrophage cell line was incubated in the presence of three concentrations (25, 5 and 0.5 μg/mL) of test compounds or without addition of compounds (−ve control).\nas §1"}, "[4]": {"test_system": "NF kappa B p65 in J774 cells", "test": "LPS induced nuclear translocation of p65 subunit of NF kappa B", "format": "cell-based, mouse", "description": "FIG. 3 depicts the LPS induced nuclear translocation of p65 subunit of NF kappa B in J774 cells. Effect of myrtocomuloacetalone 1 at concentration 25 μg/mL. Arrows show no transcription factor inside nucleus at 25 μg/mL, whereas 5, 0.5 μg/mL has no effect on nuclear factor translocation as compared to positive control. The cells were examined at 20× magnification under TRITC and DAPI channel using a Nikon TE-2000 epifluorescence microscope. Merging was done using Adobe Photoshop."}, "[5]": {"test_system": "intracellular ROS in J774.2 cells", "test": "Intracellular oxidative stress, DCFH dye, fluorescent microscopy", "format": "cell-based, mouse", "details": "PMA stimulant", "text": "FIG. 4 depicts the intracellular oxidative stress examined by fluorescent microscopy. Mouse macrophage J774.2 cells, treated with phorbol myristate acetate (PMA) alone: positive control or in combination with compound. The cells were examined at 20× magnification under a green channel. Bright field images showing the total number of cells present in the same field were obtained under phase contrast at 20× magnification. Each image is representative of 3 individual experiments.\nIn order to validate the above mentioned results, we also investigated the effect of compound on intracellular ROS levels by using 2′,7′-dichlorfluorescein (DCFH) dye, which mainly measures the H2O2 released into the intracellular environment. We employed PMA as a stimulant since PMA is known to activate the NADPH oxidase via protein kinase C pathway."}}, "note": "Where two headings read alike, the source gives them in different places.", "data": [{"molecule": "c1ccc([I+]c2ccccc2)cc1", "note": "[Diphenyliodonium, reference compound]", "values": [{"measurement": "Oxidative burst % Inhibition O−2", "setting": "superoxide (O−2)", "value": 95, "unit": "%"}]}, {"molecule": "CC(C)Cc1ccc(C(C)C(=O)O)cc1", "note": "(stereo not shown) [Ibuprofen, reference compound]", "values": [{"measurement": "IC50", "setting": "ROS (HOCl); oxidative burst", "value": "11.7 ± 1.8", "unit": "µg/mL"}]}, {"molecule": "C[C@]12C=CC(=O)C=C1CC[C@@H]1[C@@H]2[C@@H](O)C[C@@]2(C)[C@H]1CC[C@]2(O)C(=O)CO", "note": "[Prednisolone, reference compound]", "values": [{"measurement": "IC50", "setting": "T-cells; T-cell", "value": "< 0.625", "unit": "µg/mL"}]}, {"molecule": "C[C@@H]1C[C@@H]([C@H](O)CC2CC(=O)NC(=O)C2)C(=O)[C@@H](C)C1", "note": "[cycoxehamide, reference compound]", "values": [{"measurement": "Cell viability IC50, MDBK kidney cells", "setting": "MDBK kidney cells", "value": "1.2 ± 0.4", "unit": "µg/mL"}, {"measurement": "Cell viability IC50, CC1 liver cells", "setting": "CC1 liver cells", "value": "0.02 ± 0.001", "unit": "µg/mL"}, {"measurement": "Cell viability IC50, 3T3 mouse fibroblasts", "setting": "[1]", "value": 0.13, "unit": "µg/mL"}]}, {"molecule": "myrtocomuloacetalone 1 [Myrtocomuloacetalone (1)]", "values": [{"measurement": "Inhibition of inflammatory Nitric Oxide released by activated macrophages, IC50", "setting": "[2]", "value": "< 1", "unit": "µg/mL"}, {"measurement": "Effect on transcription factor p38 activated by LPS", "setting": "p38", "value": "remain unaffected"}, {"measurement": "Effect on basal level of Nitric Oxide released by neuronal cell", "setting": "[3]", "value": "does change"}, {"measurement": "Oxidative burst % Inhibition O−2", "setting": "superoxide (O−2)", "value": 42.5, "unit": "%"}, {"measurement": "Effect on superoxide production", "setting": "superoxide (O−2); oxidative burst", "value": "profound effect"}, {"measurement": "Cell viability IC50, MDBK kidney cells", "setting": "MDBK kidney cells", "value": "4.5 ± 1.1", "unit": "µg/mL"}, {"measurement": "Effect on HOCl production", "setting": "ROS (HOCl); oxidative burst", "value": "no effect"}, {"measurement": "ROS (HOCl) (IC50)", "setting": "ROS (HOCl); oxidative burst", "value": ">100", "unit": "µg/mL"}, {"measurement": "Zymosan induced ROS production of mainly HOCl", "setting": "ROS (HOCl); zymosan induced", "value": "not"}, {"measurement": "Oxidative burst % Inhibition H2O2", "setting": "H2O2; 25 μg/Ml", "value": 53, "unit": "%"}, {"measurement": "Effect on hydrogen peroxide production", "setting": "H2O2; oxidative burst", "value": "profound effect"}, {"measurement": "T-Cell proliferation (IC50)", "setting": "T-cells", "value": "<0.5", "unit": "µg/mL"}, {"measurement": "T-Cell proliferation (IC50)", "setting": "T-cells; listed as myrtocomuloacetalone 1", "value": "< 0.5", "unit": "µg/mL"}, {"measurement": "Cell viability IC50, CC1 liver cells", "setting": "CC1 liver cells", "value": "4.6 ± 0.7", "unit": "µg/mL"}, {"measurement": "Cell viability IC50, J774.2 macrophages", "setting": "J774.2 macrophages", "value": "5 ± 0.8", "unit": "µg/mL"}, {"measurement": "Nuclear translocation of NF κB", "setting": "[4]; 25 μg/mL", "value": "completely inhibits"}, {"measurement": "Nuclear translocation of NF κB", "setting": "[4]; 5, 0.5 μg/mL", "value": "no effect"}, {"measurement": "Cell viability IC50, 3T3 mouse fibroblasts", "setting": "[1]", "value": "6.53 ± 1.2", "unit": "µg/mL"}, {"measurement": "PMA induced intracellular ROS generation", "setting": "[5]", "value": "inhibitory effects"}]}]}
